From US20130131043A1, “PYRAZOLE COMPOUNDS AS JAK INHIBITORS” (priority 2010, published 2013)

Experiments:
[1] = in vivo; cited from earlier work
[2] = NOD mouse model of type I diabetes; cited from earlier work
[3] = in vivo; cited from earlier work; remark: listed apart in the source
[4] = molecular target: T1, JAK2 (Homo sapiens, UniProt O60674); assay: Kinobeads assay, JAK2 (competition binding in cell lysate, dot blot detection); conditions: mixed Molt4/Ramos lysate
T1 construct: endogenous in cells; host or cells: Molt4 (ATCC CRL-1582) and Ramos (ATCC CRL-1596) cell lysate; mixed Molt4/Ramos lysate 1:2
T1 sequence (O60674 whole entry): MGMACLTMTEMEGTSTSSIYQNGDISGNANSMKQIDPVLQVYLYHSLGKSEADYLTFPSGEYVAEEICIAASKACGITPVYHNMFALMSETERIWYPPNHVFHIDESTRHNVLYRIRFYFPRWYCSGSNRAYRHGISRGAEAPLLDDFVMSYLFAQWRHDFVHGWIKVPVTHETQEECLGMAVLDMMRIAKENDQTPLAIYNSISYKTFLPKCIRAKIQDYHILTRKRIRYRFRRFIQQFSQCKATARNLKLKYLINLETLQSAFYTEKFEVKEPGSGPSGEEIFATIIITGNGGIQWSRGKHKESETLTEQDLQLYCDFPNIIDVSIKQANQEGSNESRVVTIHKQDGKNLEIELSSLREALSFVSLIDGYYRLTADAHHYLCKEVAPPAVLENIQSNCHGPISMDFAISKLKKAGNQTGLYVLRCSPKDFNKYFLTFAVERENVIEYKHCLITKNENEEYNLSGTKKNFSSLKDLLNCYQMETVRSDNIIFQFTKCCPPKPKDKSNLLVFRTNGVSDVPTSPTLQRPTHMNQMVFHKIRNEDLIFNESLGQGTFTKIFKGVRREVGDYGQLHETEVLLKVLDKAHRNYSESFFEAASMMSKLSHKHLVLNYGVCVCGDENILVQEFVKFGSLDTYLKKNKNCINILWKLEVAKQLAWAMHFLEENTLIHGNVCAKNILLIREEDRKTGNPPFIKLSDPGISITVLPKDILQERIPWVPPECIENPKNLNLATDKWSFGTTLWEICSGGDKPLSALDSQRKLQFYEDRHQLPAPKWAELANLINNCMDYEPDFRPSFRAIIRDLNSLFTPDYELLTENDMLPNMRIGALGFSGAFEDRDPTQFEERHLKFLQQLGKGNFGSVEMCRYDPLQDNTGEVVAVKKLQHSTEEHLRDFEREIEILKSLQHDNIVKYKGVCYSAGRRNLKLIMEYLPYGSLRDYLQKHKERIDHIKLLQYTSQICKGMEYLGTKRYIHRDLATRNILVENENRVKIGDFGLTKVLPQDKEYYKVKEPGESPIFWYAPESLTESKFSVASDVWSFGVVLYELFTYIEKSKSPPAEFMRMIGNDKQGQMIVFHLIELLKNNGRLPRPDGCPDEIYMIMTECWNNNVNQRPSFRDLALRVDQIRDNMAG
In short: (§1)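 Competition binding of compound against immobilized aminopyrido-pyrimidine affinity beads in mixed Molt4/Ramos lysate (1:2, 10 mg/mL protein), 3 h in cold room. Bead-bound JAK2 or JAK3 eluted and quantified by antibody dot blot with infrared detection; IC50 from 9-step 1:3 dose-response curves.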

[5] = molecular target: T2, JAK3 (Homo sapiens, UniProt P52333); assay: Kinobeads assay, JAK3 (competition binding in cell lysate, dot blot detection); conditions: mixed Molt4/Ramos lysate
T2 construct: endogenous in cells; host or cells: Molt4 (ATCC CRL-1582) and Ramos (ATCC CRL-1596) cell lysate; mixed Molt4/Ramos lysate 1:2
T2 sequence (P52333 1-1124): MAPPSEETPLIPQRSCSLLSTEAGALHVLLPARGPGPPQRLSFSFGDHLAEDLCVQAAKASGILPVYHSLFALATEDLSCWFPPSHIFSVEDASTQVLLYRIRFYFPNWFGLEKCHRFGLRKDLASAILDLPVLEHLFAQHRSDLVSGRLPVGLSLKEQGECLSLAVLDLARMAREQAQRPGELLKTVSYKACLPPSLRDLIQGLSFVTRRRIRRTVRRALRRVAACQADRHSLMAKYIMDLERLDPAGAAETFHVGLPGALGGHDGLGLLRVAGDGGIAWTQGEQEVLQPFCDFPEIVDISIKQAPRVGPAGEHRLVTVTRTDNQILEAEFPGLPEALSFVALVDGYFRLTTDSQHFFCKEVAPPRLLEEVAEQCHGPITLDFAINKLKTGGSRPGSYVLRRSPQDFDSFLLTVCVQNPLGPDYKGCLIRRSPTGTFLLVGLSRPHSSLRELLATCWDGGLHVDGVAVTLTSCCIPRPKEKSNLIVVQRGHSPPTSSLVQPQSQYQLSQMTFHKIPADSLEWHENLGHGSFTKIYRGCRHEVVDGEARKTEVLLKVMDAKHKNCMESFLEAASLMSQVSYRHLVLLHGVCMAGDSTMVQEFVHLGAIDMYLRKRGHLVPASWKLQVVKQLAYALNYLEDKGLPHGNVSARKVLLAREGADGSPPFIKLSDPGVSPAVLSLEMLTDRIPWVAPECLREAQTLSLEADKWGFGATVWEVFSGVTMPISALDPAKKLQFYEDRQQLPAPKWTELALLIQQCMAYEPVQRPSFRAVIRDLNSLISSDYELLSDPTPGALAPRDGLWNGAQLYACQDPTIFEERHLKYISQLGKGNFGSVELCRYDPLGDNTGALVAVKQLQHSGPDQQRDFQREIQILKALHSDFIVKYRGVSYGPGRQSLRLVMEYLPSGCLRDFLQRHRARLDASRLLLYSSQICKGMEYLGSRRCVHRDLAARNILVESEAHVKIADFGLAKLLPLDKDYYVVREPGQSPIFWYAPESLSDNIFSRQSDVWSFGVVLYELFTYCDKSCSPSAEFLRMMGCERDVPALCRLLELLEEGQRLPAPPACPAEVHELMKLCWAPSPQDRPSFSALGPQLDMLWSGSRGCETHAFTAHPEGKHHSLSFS
In short: as §1

| SMILES | efficacy in an animal model of organ transplantation [1] | spontaneous autoimmune diabetes development [2] | severity of GVHD [3] | IC50 [4] | IC50 [5] |
| --- | --- | --- | --- | --- | --- |
| C[C@@H]1CCN(C(=O)CC#N)C[C@@H]1N(C)c1ncnc2[nH]ccc12 [CP-690,550] | show efficacy | – | – | – | – |
| COc1cc2ncnc(Nc3ccc(O)cc3)c2cc1OC [JANEX-1] | – | prevent spontaneous autoimmune diabetes development | attenuate the severity of GVHD | – | – |
| Cn1cc(Nc2ncc3cnn(CC4CCCN(C(=O)C5CCOCC5)C4)c3n2)cn1 (stereo not drawn) [Example 28, (3-((6-((1-methyl-1H-pyrazol-4-yl)amino)-1H-pyrazolo[3,4-d]pyrimidin-1-yl)methyl)piperidin-1-yl)(tetrahydro-2H-pyran-4-yl)methanone] | – | – | – | > 10000 nM | 100 to 1000 nM |
| CS(=O)(=O)CCC(=O)N1CCCC(Cn2ncc3cnc(Nc4cnn(CC(F)F)c4)nc32)C1 (stereo not drawn) [Example 59, 1-(3-((6-((1-(2,2-difluoroethyl)-1H-pyrazol-4-yl)amino)-1H-pyrazolo[3,4-d]pyrimidin-1-yl)methyl)piperidin-1-yl)-3-(methylsulfonyl)propan-1-one] | – | – | – | > 10000 nM | 100 to 1000 nM |
| CSCCN1CCCC(Cn2ncc3cnc(Nc4cnn(C)c4)nc32)C1 (stereo not drawn) [Example 37, N-(1-methyl-1H-pyrazol-4-yl)-1-((1-(2-(methylthio)ethyl)piperidin-3-yl)methyl)-1H-pyrazolo[3,4-d]pyrimidin-6-amine] | – | – | – | > 10000 nM | < 100 nM |
| CSCCC(=O)N1CCCC(Cn2ncc3cnc(Nc4cnn(CC(F)F)c4)nc32)C1 (stereo not drawn) [Example 56, 1-(3-((6-((1-(2,2-difluoroethyl)-1H-pyrazol-4-yl)amino)-1H-pyrazolo[3,4-d]pyrimidin-1-yl)methyl)piperidin-1-yl)-3-(methylthio)propan-1-one] | – | – | – | > 10000 nM | 100 to 1000 nM |
| Cn1cc(Nc2ncc3cnn(C4CCCN(C(=O)CC#N)C4)c3n2)cn1 (stereo not drawn) [Example 25, 3-(3-(6-((1-methyl-1H-pyrazol-4-yl)amino)-1H-pyrazolo[3,4-d]pyrimidin-1-yl)piperidin-1-yl)-3-oxopropanenitrile] | – | – | – | > 10000 nM | 100 to 1000 nM |
| CCS(=O)(=O)N1CCCC(Cn2ncc3cnc(Nc4cnn(C)c4)nc32)C1 (stereo not drawn) [Example 31, 1-((1-(ethylsulfonyl)piperidin-3-yl)methyl)-N-(1-methyl-1H-pyrazol-4-yl)-1H-pyrazolo[3,4-d]pyrimidin-6-amine] | – | – | – | 1000 to 10000 nM | < 100 nM |
| C[C@H]1CCC[C@H](n2ncc3cnc(Nc4cnn(C)c4)nc32)C1 (racemic) [Example 19, Rac-trans-N-(1-methyl-1H-pyrazol-4-yl)-1-(3-methylcyclohexyl)-1H-pyrazolo[3,4-d]pyrimidin-6-amine] | – | – | – | 1000 to 10000 nM | < 100 nM |
| Cn1cc(Nc2ncc3cnn(CC4CCCNC4)c3n2)cn1 (stereo not drawn) [Example 5, N-(1-methyl-1H-pyrazol-4-yl)-1-(piperidin-3-ylmethyl)-1H-pyrazolo[3,4-d]pyrimidin-6-amine] | – | – | – | 1000 to 10000 nM | 100 to 1000 nM |
| Cn1cc(Nc2ncc3cnn(CCC4CCCNC4)c3n2)cn1 (stereo not drawn) [Example 30, N-(1-methyl-1H-pyrazol-4-yl)-1-(2-(piperidin-3-yl)ethyl)-1H-pyrazolo[3,4-d]pyrimidin-6-amine] | – | – | – | > 10000 nM | 100 to 1000 nM |
| CNC(=O)CN1CCCC(Cn2ncc3cnc(Nc4cnn(C)c4)nc32)C1 (stereo not drawn) [Example 64, N-methyl-2-(3-((6-((1-methyl-1H-pyrazol-4-yl)amino)-1H-pyrazolo[3,4-d]pyrimidin-1-yl)methyl)piperidin-1-yl)acetamide] | – | – | – | 1000 to 10000 nM | < 100 nM |
| Cn1cc(Nc2ncc3cnn(CC4CCCCC4)c3n2)cn1 [Example 16, 1-(Cyclohexylmethyl)-N-(1-methyl-M-pyrazol-4-yl)-1H-pyrazolo[3,4-d]pyrimidin-6-amine] | – | – | – | 1000 to 10000 nM | < 100 nM |
| CS(=O)(=O)N1CCCC(Cn2ncc3cnc(Nc4cnn(CC(F)F)c4)nc32)C1 (stereo not drawn) [Example 4, N-(1-(2,2-difluoroethyl)-1H-pyrazol-4-yl)-1-((1-(methylsulfonyl)piperidin-3-yl)methyl)-1H-pyrazolo[3,4-d]pyrimidin-6-amine] | – | – | – | 1000 to 10000 nM | < 100 nM |
| Cn1cc(Nc2ncc3cnn(CCC4CCCN(S(C)(=O)=O)C4)c3n2)cn1 (stereo not drawn) [Example 34, N-(1-methyl-1H-pyrazol-4-yl)-1-(2-(1-(methylsulfonyl)piperidin-3-yl)ethyl)-1H-pyrazolo[3,4-d]pyrimidin-6-amine] | – | – | – | 1000 to 10000 nM | 100 to 1000 nM |
| CCS(=O)(=O)N1CCC(Cn2ncc3cnc(Nc4cnn(C)c4)nc32)C1 (stereo not drawn) [Example 42, 1-((1-(ethylsulfonyl)pyrrolidin-3-yl)methyl)-N-(1-methyl-1H-pyrazol-4-yl)-1H-pyrazolo[3,4-d]pyrimidin-6-amine] | – | – | – | > 10000 nM | 100 to 1000 nM |
| Cn1cc(Nc2ncc3cnn(C4CCNCC4)c3n2)cn1 [Example 12, N-(1-methyl-1H-pyrazol-4-yl)-1-(piperidin-4-yl)-1H-pyrazolo[3,4-d]pyrimidin-6-amine] | – | – | – | > 10000 nM | 1000 to 10000 nM |
| Cn1cc(Nc2ncc3cnn(CC4CCCN(CCS(C)(=O)=O)C4)c3n2)cn1 (stereo not drawn) [Example 46, N-(1-methyl-1H-pyrazol-4-yl)-1-((1-(2-(methylsulfonyl)ethyl)piperidin-3-yl)methyl)-1H-pyrazolo[3,4-d]pyrimidin-6-amine] | – | – | – | 1000 to 10000 nM | < 100 nM |
| Cn1cc(Nc2ncc3cnn(C4CCN(S(C)(=O)=O)CC4)c3n2)cn1 [Example 3, N-(1-methyl-1H-pyrazol-4-yl)-1-(1-(methylsulfonyl)piperidin-4-yl)-1H-pyrazolo[3,4-d]pyrimidin-6-amine] | – | – | – | 1000 to 10000 nM | 100 to 1000 nM |
| Cn1cc(Nc2ncc3cnn(CC4CCCN(S(=O)(=O)C5CC5)C4)c3n2)cn1 (stereo not drawn) [Example 33, 1-((1-(cyclopropylsulfonyl)piperidin-3-yl)methyl)-N-(1-methyl-1H-pyrazol-4-yl)-1H-pyrazolo[3,4-d]pyrimidin-6-amine] | – | – | – | 1000 to 10000 nM | < 100 nM |
